ChEMBL document CHEMBL1944516, “Novel hybrid molecules based on 15-membered azalide as potential antimalarial agents” (Eur J Med Chem, 2012)
In brackets after ≈: the same amount, converted by molar mass.

Legend:
Haemophilus influenzae = test: Antibacterial activity against Haemophilus influenzae ATCC 49247 by broth microdilution method; type: functional
[1] = Oral bioavailability in CD1 mouse at 12.5 mg/kg by LC-MS/Ms analysis; type: ADME, organism-based; details: in vivo
Plasmodium falciparum [2] = test: Ratio of azithromycin IC50 to compound IC50 for chloroquine and pyrimethamine-resistant Plasmodium falciparum W2; type: functional
[3] = Volume of distribution at steady state in CD1 mouse at 12.5 mg/kg, iv and 12.5 mg/kg, po by LC-MS/Ms analysis; type: ADME, organism-based; details: in vivo, read-out: Vdss
Staphylococcus aureus = test: Antibacterial activity against Staphylococcus aureus ATCC 13709 by broth microdilution method; type: functional
Plasmodium falciparum [4] = test: Ratio of chloroquine IC50 to compound IC50 for […] Plasmodium falciparum W2; type: functional
HepG2 = test: Cytotoxicity against human HepG2 cells after 24 hrs by MTS assay; type: cell-based; details: HepG2, 24 h
Streptococcus pyogenes = test: Antibacterial activity against clinical isolate Streptococcus pyogenes 3565; type: functional
[5] = Half life in CD1 mouse at 12.5 mg/kg, iv and 12.5 mg/kg, po by LC-MS/Ms analysis; type: ADME, organism-based; details: in vivo
Moraxella catarrhalis = test: Antibacterial activity against Moraxella catarrhalis ATCC 23246 by broth microdilution method; type: functional
Streptococcus pneumoniae = test: Antibacterial activity against clinical isolate Streptococcus pneumoniae SP030; type: functional
Plasmodium falciparum [6] = test: Ratio of azithromycin IC50 to compound IC50 for chloroquine-sensitive Plasmodium falciparum 3D7A; type: functional
[7] = Clearance in CD1 mouse at 12.5 mg/kg, iv and 12.5 mg/kg, po by LC-MS/Ms analysis; type: ADME, organism-based; details: in vivo
Mus musculus = test: Dose normalized AUC in CD1 mouse at 12.5 mg/kg, po by LC-MS/Ms analysis; type: ADME, organism-based; set-up: dose 12.5 mg/kg, route oral; details: in vivo
Liver microsomes [8] = test: Intrinsic clearance in human liver microsomes assessed per gram of liver at 1 uM after 60 mins by LC-MS/Ms analysis; type: ADME, Microsome; details: 1 h
Plasmodium falciparum [9] = test: Antimalarial activity against chloroquine-sensitive Plasmodium falciparum 3D7A infected in human A-positive erythrocytes assessed as inhibition of [3H]-hypoxanthine incorporation after 48 hrs by semi-automated microdilution technique; type: functional, organism-based
Liver = test: Intrinsic clearance in mouse liver microsomes assessed per gram of liver at 1 uM after 60 mins by LC-MS/Ms analysis; type: ADME, Microsome; details: 1 h
[10] = Ratio of drug level in blood to plasma of CD1 mouse at 12.5 mg/kg, iv and 12.5 mg/kg, po by LC-MS/Ms analysis; type: ADME, organism-based
Plasmodium falciparum [11] = test: Antimalarial activity against chloroquine and pyrimethamine-resistant Plasmodium falciparum W2 infected in human A-positive erythrocytes assessed as inhibition of [3H]-hypoxanthine incorporation after 48 hrs by semi-automated microdilution technique; type: functional, organism-based
Liver microsomes [12] = test: Intrinsic clearance in rat liver microsomes assessed per gram of liver at 1 uM after 60 mins by LC-MS/Ms analysis; type: ADME, Microsome; details: 1 h

Row | Compound | MIC (Haemophilus influenzae) | bioavailability [1] | Ratio IC50 (Plasmodium falciparum [2]) | Vd [3] | MIC (Staphylococcus aureus) | Ratio IC50 (Plasmodium falciparum [4]) | IC50 (HepG2) | MIC (Streptococcus pyogenes) | half-life [5] | MIC (Moraxella catarrhalis) | MIC (Streptococcus pneumoniae) | Ratio IC50 (Plasmodium falciparum [6]) | clearance [7] | AUC/dose (Mus musculus) | CLint (Liver microsomes [8]) | IC50 (Plasmodium falciparum [9]) | CLint (Liver) | blood plasma ratio [10] | IC50 (Plasmodium falciparum [11]) | CLint (Liver microsomes [12])
1 | CC[C@H]1OC(=O)[C@H](C)[C@@H](O[C@H]2C[C@@](C)(OC)[C@@H](O)[C@H](C)O2)[C@H](C)[C@@H](O[C@@H]2O[C@H](C)C[C@H](N(C)CCCNC(=O)CCCNc3ccnc4cc(Cl)ccc34)[C@H]2O)[C@](C)(O)C[C@@H](C)CN(C)[C@H](C)[C@@H](O)[C@]1(C)O | > 64 µg/mL | 5% | 150 | 116 L/kg | > 64 µg/mL | 9 | > 50000 nM | 16 µg/mL (≈ 15.4 µM) | 63.9 h | 4 µg/mL (≈ 3.85 µM) | 4 µg/mL (≈ 3.85 µM) | 56 | 47.7 mL/min/kg | 13.28 ng·h/mL | < 0.6 mL/min/g | 77 nM | < 0.6 mL/min/g | 1 | 48 nM | < 0.6 mL/min/g
2 | CC[C@H]1OC(=O)[C@H](C)[C@@H](O)[C@H](C)[C@@H](O[C@@H]2O[C@H](C)C[C@H](N(C)CCCNC(=O)CCCNc3ccnc4cc(Cl)ccc34)[C@H]2O)[C@](C)(O)C[C@@H](C)CN(C)[C@H](C)[C@@H](O)[C@]1(C)O | > 64 µg/mL |  | 9 |  | > 64 µg/mL |  | > 50000 nM | > 64 µg/mL |  | > 64 µg/mL | > 64 µg/mL | 9 |  |  |  | 636 nM |  |  | 295 nM | 
3 | CC[C@H]1OC(=O)[C@H](C)[C@@H](O[C@H]2C[C@@](C)(OC)[C@@H](O)[C@H](C)O2)[C@H](C)[C@@H](O[C@@H]2O[C@H](C)C[C@H](N(C)CCCNc3ccnc4cc(Cl)ccc34)[C@H]2O)[C@](C)(O)C[C@@H](C)CN(C)[C@H](C)[C@@H](O)[C@]1(C)O | > 64 µg/mL |  |  |  | > 64 µg/mL |  | 3000 nM | 16 µg/mL (≈ 16.8 µM) |  | 1 µg/mL (≈ 1.05 µM) | 8 µg/mL (≈ 8.39 µM) |  |  |  |  |  |  |  |  | 
4 | CC[C@H]1OC(=O)[C@H](C)[C@@H](O)[C@H](C)[C@@H](O[C@@H]2O[C@H](C)C[C@H](N(C)CCCNc3ccnc4cc(Cl)ccc34)[C@H]2O)[C@](C)(O)C[C@@H](C)CN(C)[C@H](C)[C@@H](O)[C@]1(C)O | > 64 µg/mL |  |  |  | > 64 µg/mL |  | 14000 nM | > 64 µg/mL |  | 32 µg/mL (≈ 40.2 µM) | > 64 µg/mL |  |  |  |  |  |  |  |  | 
5 | CC[C@H]1OC(=O)[C@H](C)[C@@H](O[C@H]2C[C@@](C)(OC)[C@@H](O)[C@H](C)O2)[C@H](C)[C@@H](O[C@@H]2O[C@H](C)C[C@H](N(C)C(=O)CCCNc3ccnc4cc(Cl)ccc34)[C@H]2O)[C@](C)(O)C[C@@H](C)CN(C)[C@H](C)[C@@H](O)[C@]1(C)O | > 64 µg/mL |  | 29 |  | > 64 µg/mL | 5 | > 50000 nM | 16 µg/mL (≈ 16.3 µM) |  | 4 µg/mL (≈ 4.07 µM) | 8 µg/mL (≈ 8.15 µM) | 111 |  |  |  | 104 nM |  |  | 93 nM | 
6 | CC[C@H]1OC(=O)[C@H](C)[C@@H](O[C@H]2C[C@@](C)(OC)[C@@H](O)[C@H](C)O2)[C@H](C)[C@@H](O[C@@H]2O[C@H](C)C[C@H](N(C)C(=O)CNc3ccnc4cc(Cl)ccc34)[C@H]2O)[C@](C)(O)C[C@@H](C)CN(C)[C@H](C)[C@@H](O)[C@]1(C)O | > 64 µg/mL |  |  |  | 16 µg/mL (≈ 16.8 µM) |  | 27000 nM | 4 µg/mL (≈ 4.19 µM) |  | 8 µg/mL (≈ 8.39 µM) | 2 µg/mL (≈ 2.1 µM) |  |  |  |  | 10 nM |  |  | 13 nM | 
7 | CC[C@H]1OC(=O)[C@H](C)[C@@H](O[C@H]2C[C@@](C)(OC)[C@@H](O)[C@H](C)O2)[C@H](C)[C@@H](O[C@@H]2O[C@H](C)C[C@H](N(C)Cc3cn(CCCNc4ccnc5cc(Cl)ccc45)nn3)[C@H]2O)[C@](C)(O)C[C@@H](C)CN(C)[C@H](C)[C@@H](O)[C@]1(C)O | > 64 µg/mL |  |  |  | 16 µg/mL (≈ 15.5 µM) |  |  | 0.5 µg/mL (≈ 0.483 µM) |  | 2 µg/mL (≈ 1.93 µM) | 0.5 µg/mL (≈ 0.483 µM) |  |  |  |  |  |  |  |  | 
8 | CC[C@H]1OC(=O)[C@H](C)[C@@H](O[C@H]2C[C@@](C)(OC)[C@@H](O)[C@H](C)O2)[C@H](C)[C@@H](O[C@@H]2O[C@H](C)C[C@H](N(C)C)[C@H]2O)[C@](C)(O)C[C@@H](C)CN(C)[C@H](C)[C@@H](O)[C@]1(C)O [AZITHROMYCIN] | 2 µg/mL (≈ 2.67 µM) |  |  |  | 1 µg/mL (≈ 1.34 µM) |  | 203000 nM | 0.125 µg/mL (≈ 0.167 µM) |  | 0.06 µg/mL (≈ 0.0801 µM) | 0.06 µg/mL (≈ 0.0801 µM) |  |  |  |  | 11500 nM |  |  | 2680 nM | 
